The subject of data set [1] is mouse Notch1. The data set is described as follows: Notch1 N1ICD nuclear accumulation cellular imaging assay. It is filed as cell-based. Particulars: HEK293ΔE12 cells, 24 hours treatment, n=2; read-out: average IC50 for the nuclear N1ICD signal. Here is the method: (§1) HEK293ΔE12 cells (HEK293 cells are engineered to stably express mouse Notch1 cDNA coding for amino acid 1703-2183, Np_932740.3, (Full length mouse Notch 1 protein precursor: SEQ ID NO:1) with 23 amino acid signal peptide sequence, […] (SEQ ID NO:2), at its N-terminus) are plated at 5000 cells/well in 96 well plates, incubated in Dulbecco's Modified. Eagle's Medium (DMEM)-high glucose with 5% fetal bovine serum (FBS) at 37° C., 5% CO2 for 24 hours. Cells are treated with test compound, dosing at 10 points of 1:3 dilutions across the range of 1000 nM to 0.05 nM, and with final dimethyl sulfoxide (DMSO) concentration at 0.2%. […] Plates are scanned with ACUMEN EXPLORER™ Laser-scanning fluorescence microplate cytometer (TTP LABTECH LTD) to measure total cell nuclear count/well and total nuclear area/well with fluorescence at 655 nm-705 nm (emission of DNA bound propidium iodide) and fluorescence of antibody binding to N1ICD in nuclear region at 505 nm-530 nm. The main assay output is a ratio of total fluorescence of nuclear N1ICD to total nuclear area, the normalized nuclear N1ICD signal. […] Concentration response and the IC50 are determined by curve fitting to a four parameter logistic for the nuclear N1ICD signal, while the % cell number is plotted in the same graph for cytotoxicity profiling.

Data set [2] concerns HEK293ΔE12 cells. The data set is described as follows: Relative cytotoxicity profiling (% cell number) in the N1ICD imaging assay. Format: cell-based, human. Conditions: up to 1000 nM concentration, 24 hours treatment. On the procedure: as §1
Data set [3] relates to hAtoh1. In words: Induction of hAtoh1 expression in human tumor cell line LS174T (qPCR). Conditions: LS174T cells, 72 hours, read-out: IC50 (relative expression of hAtoh1). Format: cell-based. Here is the method: To evaluate potency of Compounds 1, Isomer 2 and 2, Isomer 2 in their ability to induce hAtoh1 expression, a human tumor cell line is utilized. Endogenous Notch signaling regulation for this cell line is similar to that in the inner ear. Generally, this assay is carried out following principles in Kazanjian et al., Gastroenterology, 2010, 139(3): 918-928 and Supplementary Materials and Methods.
Generally, standard cell culture techniques are used. Low passage human colorectal adenocarcinoma cell line LS174T (ATCC CL-188) maintained in Growth Medium (MEM 10% FBS) is plated 10,000 cells in 100 μl Assay Medium (MEM 1% FBS) per well into 96-well tissue culture treated plates. […]
To quantify the expression of hair cell markers from the […], qPCR probes to detect hAtoh1 or TBP expression in a single two-color multiplex reaction is carried out. […] Relative gene expression between treatment groups is analyzed using the ΔΔCT method and replicate measurements are averaged.
Four separate assays are carried out to obtain IC50 values for each test compound. The IC50 value is determined by fitting concentration response data to “log(antagonist) vs. response (three parameter)” model using GraphPad Prism® software for 12 doses across a concentration range of 4.0E-11 to 1.0E-6 M with 108 total points analyzed for each compound.

By IC50 is commonly meant the concentration that gives 50% inhibition. On to `COc1ccc2c(c1)N1CCC(C)(C)C1=CC(=O)C2NC(=O)[C@H](C)NC(=O)CCC(F)(F)F` (single isomer, unassigned) [Compound 1, Isomer 2], for which the IC50 in data set [1] is 0.37 nM; in data set [3] it was 16.6 nM. In data set [2], the “effect on cell number (cytotoxicity profiling)” value is listed as “Neither compound affects cell number”.

For the compound `C[C@H](NC(=O)CCC(F)(F)F)C(=O)NC1C(=O)C=C2N(CCC2(C)C)c2ncccc21` (single isomer, unassigned) [Compound 2, Isomer 2], the IC50 was determined as 1.55 nM in data set [1] and 54.3 nM in data set [3]. Further, in data set [2], the “effect on cell number (cytotoxicity profiling)” value is listed as “Neither compound affects cell number”.
